Measured values from US6509344B1, “Indenoisoquinolines as antineoplastic agents” (The United States of America as represented by the …, priority 1998, dated 2003).
Entries after “also recorded” stand apart in the source; their conditions may differ. Read-outs that look alike come from different tables or passages of the source.

Key:
[1] = biological target: T1, topoisomerase I cleavage complexes (Homo sapiens, UniProt P11387); experiment: Salt reversal of topoisomerase I cleavage complexes; assay type: biochemical; details: increasing salt concentration
T1 sequence (P11387 1-765): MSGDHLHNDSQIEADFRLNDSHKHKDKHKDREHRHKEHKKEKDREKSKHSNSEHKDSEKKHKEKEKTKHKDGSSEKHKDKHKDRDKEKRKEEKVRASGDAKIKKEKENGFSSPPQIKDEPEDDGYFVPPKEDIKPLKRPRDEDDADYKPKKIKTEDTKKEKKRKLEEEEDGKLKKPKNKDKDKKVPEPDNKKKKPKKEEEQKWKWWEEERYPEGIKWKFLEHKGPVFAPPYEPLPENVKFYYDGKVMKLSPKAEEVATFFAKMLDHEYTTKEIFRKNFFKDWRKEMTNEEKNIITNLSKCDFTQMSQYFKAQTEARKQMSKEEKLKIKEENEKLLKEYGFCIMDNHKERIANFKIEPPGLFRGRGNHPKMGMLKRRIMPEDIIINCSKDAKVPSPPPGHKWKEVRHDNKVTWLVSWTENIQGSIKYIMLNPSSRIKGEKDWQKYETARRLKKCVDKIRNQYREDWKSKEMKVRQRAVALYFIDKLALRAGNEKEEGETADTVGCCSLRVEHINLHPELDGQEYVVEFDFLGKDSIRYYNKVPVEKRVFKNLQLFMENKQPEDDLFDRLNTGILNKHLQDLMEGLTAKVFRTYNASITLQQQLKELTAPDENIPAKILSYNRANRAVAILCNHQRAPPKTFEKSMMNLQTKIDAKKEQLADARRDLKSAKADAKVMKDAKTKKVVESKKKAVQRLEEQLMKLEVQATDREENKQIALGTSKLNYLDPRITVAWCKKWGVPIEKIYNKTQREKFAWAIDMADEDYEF

[2] = tested on: HOP-62; experiment: NCI human cancer cell line screen (COMPARE screening), Lung HOP-62; assay type: cell-based
Source text: (§1) Considering the diversity of cancer in terms of cell type, morphology, growth rate and other cellular characteristics, the U.S. National Cancer Institute (NCI) has developed a “disease-oriented” approach to anticancer activity screening (M. R. Boyd, in “Principle of Practice of Oncology” […]. Rosenberg (Eds.) Vol. 3, PPO Update, No. 10, 1989). This in vitro prescreening system is based on the measurement of anticancer cytotoxicity against human cancer cell line panels consisting of approximately 60 cell lines of major human cancers (including leukemia and slower growing tumor cells such as lung, colon, breast, skin, kidney, etc.) and is referred hereinafter as “COMPARE” screening. An important advantage of the new in vitro screening panels is the opportunity to facilitate identification of compounds that are selectively more cytotoxic to cells of certain types of cancers, thus increasing the ability to select compounds for further study with respect to specific diseases. The indenoisoquinolines were examined for antiproliferative activity against the human cancer cell lines in the National Cancer Institute screen (COMPARE screening), in which the activity of each compound was evaluated with approximately […] different cancer cell lines of diverse tumor origins.

[3] = tested on: SN12C; experiment: NCI human cancer cell line screen (COMPARE screening), Renal SN12C; assay type: cell-based
Source text: as §1

[4] = tested on: MDA-MB-435; experiment: NCI human cancer cell line screen (COMPARE screening), Breast MDA-MB-435; assay type: cell-based
Source text: as §1

[5] = tested on: supercoiled SV40 DNA; experiment: SV40 DNA unwinding assay; assay type: biochemical
Procedure: With some of the compounds (e.g. 27), the activity seemed to increase initially as the concentration was increased, but then it declined at higher concentrations. […] The unwinding assay using supercoiled DNA in the presence of topoisomerase I is a simple procedure to detect DNA intercalation.
After electrophoresis, DNA bands were stained in 10 μg/mL of ethidium bromide and visualized by transillumination with UV light (300 nm).

[6] = tested on: SF-539; experiment: NCI human cancer cell line screen (COMPARE screening), CNS SF-539; assay type: cell-based
Source text: as §1

[7] = tested on: HCT-116; experiment: NCI human cancer cell line screen (COMPARE screening), Colon HCT-116; assay type: cell-based
Source text: as §1

[8] = tested on: human topoisomerase II; experiment: Topoisomerase II-mediated DNA cleavage assay (5'-end-labeled human c-myc DNA); assay type: biochemical
[9] = tested on: DU-145; experiment: NCI human cancer cell line screen (COMPARE screening), Prostate DU-145; assay type: cell-based
Source text: as §1

[10] = tested on: approximately 55 different cancer cell lines of diverse tumor origins; experiment: NCI screen mean graph midpoint over all cell lines tested; assay type: cell-based, human; details: for IC50: average GI50 for all cell lines tested (approximately 55), values outside test range taken as 10^-8 or 10^-4 molar, read-out: MGM (mean graph midpoint)
Source text: as §1

[11] = tested on: UACC-62; experiment: NCI human cancer cell line screen (COMPARE screening), Melanoma UACC-62; assay type: cell-based
Source text: as §1

[12] = biological target: T2, topoisomerase I (Homo sapiens, UniProt P11387); experiment: Topoisomerase I-mediated DNA cleavage assay (3'-end-labeled 161 bp pBluescript SK(-) fragment); assay type: biochemical; details: for Top 1 Cleavage: relative to the activity of 1 μM camptothecin
T2 sequence (P11387 1-765): T1 sequence (P11387 1-765)
Procedure: Topoisomerase I-Mediated DNA Cleavage Reactions Using 3′-End-labeled 161 BP Plasmid DNA
The 161 bp fragment from pBluescript SK(−) phagemid DNA (Stratagene, La Jolla, Calif.) was cleaved with the restriction endonuclease Pvu II and Hind III (New England Biolabs, Beverly, Mass.) in supplied NE buffer 2 (10 μL reactions) for 1 h at 37° C., separated by electrophoresis in a 1% agarose gel made in 1×TBE buffer. The 161 bp fragment was eluted from the gel slice (centrilutor by Amicon) and concentrated in a centricon 50 centrifugal concentrator (Amicon, Beverly, Mass.). Approximately 200 ng of the fragment was 3′-end-labeled at the Hind III site by fill-in reaction with [alpha-^32P]-dCTP and 0.5 mM dATP, dGTP, and dTTP, in React 2 buffer (50 mM Tris-HCl, pH 8.0, […], 50 mM NaCl) with 0.5 units of DNA polymerase I (Klenow fragment). Labeling reactions were followed by phenol-chloroform extraction and ethanol precipitation. The resulting 161 bp 3′-endlabeled DNA fragment was resuspended in water. Aliquots (approximately 50,000 dpm/reaction) were incubated with topoisomerase I at 30° C. for 15 min in the presence of the indicated drug. Reactions were terminated by adding 0.5% SDS. After ethanol precipitation, the samples were resuspended in loading buffer (80% formamide, 10 mM sodium hydroxide, 1 mM sodium EDTA, 0.1% xylene cyanol, and 0.1% bromophenol blue, pH 8.0), and separated in a denaturing gel (16% polyacrylamide, 7 M urea) run at 51° C. The gel was dried and visualized by using a Phosphoimager and ImageQuant software (Molecular Dynamics, Sunnyvale, Calif.).

[13] = tested on: OVCAR-3; experiment: NCI human cancer cell line screen (COMPARE screening), Ovarian OVCAR-3; assay type: cell-based
Source text: as §1

[14] = Homo sapiens, HOP-62, concentration causing 50% growth inhibition, read-out: Cytotoxicity (G150 in μM) Lung HOP-62
[15] = Homo sapiens, SN12C, concentration causing 50% growth inhibition, read-out: Cytotoxicity (G150 in μM) Renal SN12C
[16] = Homo sapiens, MDA-MB-435, concentration causing 50% growth inhibition, read-out: Cytotoxicity (G150 in μM) Breast MDA-MB-435
[17] = Homo sapiens, HCT-116, concentration causing 50% growth inhibition, read-out: Cytotoxicity (G150 in μM) Colon HCT-116
[18] = Homo sapiens, DU-145, concentration causing 50% growth inhibition, read-out: Cytotoxicity (G150 in μM) Prostate DU-145
[19] = Homo sapiens, UACC-62, concentration causing 50% growth inhibition, read-out: Cytotoxicity (G150 in μM) Melanoma UACC-62
[20] = Homo sapiens, OVCAR-3, concentration causing 50% growth inhibition, read-out: Cytotoxicity (G150 in μM) Ovarian OVCAR-3

For CC[C@@]1(O)C(=O)OCc2c1cc1n(c2=O)Cc2cc3ccccc3nc2-1 [Compound 34, camptothecin, reference compound], the “reversal of induced cleavage sites by salt treatment” value (shortened to “reversal of induced cleavage sites”) [1] was “reversed by salt treatment”.

Work on COc1cc2c3c(n(C)c(=O)c2cc1OC)-c1cc2c(cc1C3=O)OCO2 [Compound 1, reference compound] yielded an IC50 ([2]; HOP-62, concentration causing 50% growth inhibition, read-out: Cytotoxicity (G150 in μM) Lung HOP-62) of 1.3 µM, an IC50 ([3]; SN12C, concentration causing 50% growth inhibition, read-out: Cytotoxicity (G150 in μM) Renal SN12C) of 68 µM and an IC50 ([4]; MDA-MB-435, concentration causing 50% growth inhibition, read-out: Cytotoxicity (G150 in μM) Breast MDA-MB-435) of 96 µM. The DNA unwinding ([5]; supercoiled DNA in the presence of topoisomerase I) was “did not produce detectable DNA unwinding; also recorded: does not appear to unwind DNA”, the IC50 ([6]; SF-539, concentration causing 50% growth inhibition, read-out: Cytotoxicity (G150 in μM) CNS SF-539) was 41 µM and the IC50 ([7]; HCT-116, concentration causing 50% growth inhibition, read-out: Cytotoxicity (G150 in μM) Colon HCT-116) was 35 µM. The “induction of topoisomerase II cleavage complexes” value (“induction” for short) [8] was “no effect”, the IC50 ([9]; DU-145, concentration causing 50% growth inhibition, read-out: Cytotoxicity (G150 in μM) Prostate DU-145) was 37 µM and the “reversal of induced cleavage sites” value [1] was “reversed by salt treatment”. The IC50 [10] was 20 µM, the IC50 ([11]; UACC-62, concentration causing 50% growth inhibition, read-out: Cytotoxicity (G150 in μM) Melanoma UACC-62) was 4.2 µM and the “activity in the topoisomerase I cleavage assay (in words)” value (“activity” below) [12] was “induce DNA cleavage in the presence of topoisomerase I; also recorded: good activity”. The “Top 1 Cleavage” value [12] was “++ (those compounds having greater than 50% of the activity of 1 μM camptothecin)”.

C=CCn1c2c(c3cc(OC)c(OC)cc3c1=O)C(=O)c1cc3c(cc1-2)OCO3 [Compound 13c, 6-Allyl-2,3-dimethoxy-5,6-dihydro-5,11-oxo-8,9-(methylenedioxy)-11H-indeno[1,2-c]isoquinoline] showed an IC50 [2] of 3.4 µM, an IC50 [3] of 2.6 µM and an IC50 [4] of 5.2 µM. The IC50 [6] was 2.2 µM, the IC50 [7] was 2.3 µM and the “induction” value [8] was “no effect”. For the same molecule, the IC50 [9] was 3.2 µM, the “reversal of induced cleavage sites” value [1] was “reversed by salt treatment” and the IC50 [10] was 4.2 µM. For the same molecule, the “activity” value [12] was “rival the topoisomerase activity of 1”, the “Top 1 Cleavage” value [12] was “+ (those compounds having between 20% and 50% of the activity of 1 μM camptothecin)” and the IC50 [13] was 6.6 µM.

O=C(O)CCCn1c2c(c3ccccc3c1=O)C(=O)c1ccccc1-2 [Compound 26, 6-(3-Carboxy-1-propyl)-5,6-dihydro-5,11-diketo-11H-indeno[1,2-c]isoquinoline] showed an IC50 [2, 14] of 87 µM, an IC50 [3, 15] of 27 µM and an IC50 [4, 16] of over 100 µM. The “DNA unwinding at higher concentrations” value ([5]; at higher concentrations) was “does unwind DNA”, the IC50 [7, 17] was 40 µM and the “induction” value [8] was “induced topoisomerase II cleavage complexes”. The IC50 [9, 18] was 48 µM, the “reversal of induced cleavage sites” value [1] was “reversed by salt treatment” and the IC50 ([10]; Homo sapiens) was 48 µM. The IC50 [11, 19] was 73 µM, the “activity” value [12] was “most potent; also recorded: rival the topoisomerase activity of 1” and the “Top 1 Cleavage” value [12] was “++ (those compounds having greater than 50% of the activity of 1 μM camptothecin)”. The IC50 [13, 20] was over 100 µM.

COc1cc2c(cc1OC)[C@H]1C(=O)c3cc4c(cc3[C@H]1N(C)C2=O)OCO4 (relative stereo) [Compound 20, cis-5,6,12,13-Tetrahydro-2,3-dimethoxy-6-methyl-5,11-dioxo-8,9(methylenedioxy)-(11H)indeno[1,2-c]isoquinoline] showed an IC50 [2] of 9.4 µM, an IC50 [3] of 2.1 µM and an IC50 [4] of 17 µM. The IC50 [6] was 3.1 µM, the IC50 [7] was 2 µM and the “induction” value [8] was “no effect”. The IC50 [9] was 4.1 µM, the “cytotoxicity (MGM) relative to lead compound 1” value [10] was “lower MGM than the lead compound 1” and the IC50 [10] was 5 µM. The IC50 [11] was 0.42 µM, the “activity” value [12] was “weak” and the “Top 1 Cleavage” value [12] was “± (those compounds having less than 20% of the activity of 1 μM camptothecin)”. It also gave an IC50 [13] of 6.7 µM.

Molecule O=C1c2ccccc2-c2c1c1ccccc1c(=O)n2CCCCO [Compound 7, 5,6-Dihydro-6-(4-hydroxy-1-butyl)-5,11-diketo-11H-indeno[1,2-c]isoquinoline] has an IC50 [2, 14] of 13 µM, an IC50 [3, 15] of 7.4 µM and an IC50 [4, 16] of over 100 µM. The IC50 ([6]; Homo sapiens, SF-539, concentration causing 50% growth inhibition, read-out: Cytotoxicity (G150 in μM) CNS SF-539) was 4.6 µM, the IC50 [7, 17] was 3.2 µM and the “induction” value [8] was “weak topoisomerase II activity”. The IC50 [9, 18] was over 100 µM, the IC50 ([10]; Homo sapiens) was 16 µM and the “cytotoxicity (MGM) relative to lead compound 1” value ([10]; comparison in words) was “lower MGM than the lead compound 1”. The IC50 [11, 19] was 4.4 µM, the “Top 1 Cleavage” value [12] was “+ (those compounds having between 20% and 50% of the activity of 1 μM camptothecin)” and the IC50 [13, 20] was 74 µM.

With COC1=CC2=C(CN1OC)C1=C(c3cc4c(cc3C1=O)OCO4)C(CCCC(C)O)C2=O (centres unmarked) [Compound 19b, 5,6-Dihydro-6-(4-hydroxypent-1-yl)-5,11-diketo-2,3-dimethoxy-8,9-methylenedioxy-11H-indenoisoquinoline] the melting point was 288 to 290 °C.
